Reference: patent US12371662B2, “Cell-based treatment and drug discovery in Hirschsprung's disease enabled by pluripotent stem cell-derived human enteric neural crest lineages” (MEMORIAL SLOAN-KETTERING CANCER CENTER, priority 2015, dated 2025)
Where a SMILES comes first, the peptide text is derived from it. [ ]: non-standard residue; d: D form. The star is where a group is joined. Sta = CC(C)C[C@H](N)[C@@H](O)CC(=O)O; Isovaleryl = CC(C)CC(=O)*

How the values were obtained:
rodent GSK3β homologs = details: cited from earlier work
[1] = test system: CD49D purified EDNRB−/− hESC-derived ENC; assay: Scratch (migration) assay on EDNRB−/− ENC precursors; type: cell-based, human
Procedure: The ENC cells were plated on PO/LM/FN coated (prepared as described previously^38) 96 well or 48 well culture plates (30,000/cm^2). 24 hours later the culture lawn was scratched manually using a pipette tip. The cells were given an additional 24-48 hours to migrate into the scratch area and fixed for imaging and quantification. The quantification was based on the percentage of the nuclei that are located in the scratch area after the migration period. The scratch area was defined using a reference well that was fixed immediately after scratching. Migration of cells were quantified using the open source data analysis software KNIME^41 (http://knime.org) with the “Quantification in ROI” plug-in as described in detail elsewhere^42.
The chemical compound screening was performed using the Prestwick Chemical Library®. The ENC cells were plated in 96 well plates (30,000/cm^2) and scratched manually 24 hours before addition of the compounds. The cells were treated with two concentrations of the compounds (10 μM and 1 μM). The plates were fixed 24 hours later for total plate imaging. The compounds were scores based on their ability to promote filling of the scratch in 24 hours. […] The hits were further validated to ensure reproducibility. The cells were treated with various concentrations of the selected hit compound (Pepstatin A) for dose response analysis. The optimal dose (10 μM-based on optimal response and viability) was used for follow-up experiments. For the pre-treatment experiments, cells were CD49D purified at day 11 and treated with Pepstatin A from day 12 through day 15 followed by transplantation into the colon wall of NSG mice.
To inhibit BACE2, the ENC precursors were treated with 1 μM β-Secretase Inhibitor IV (CAS 797035-11-1—Calbiochem). […] The Knockdown was confirmed by qRT-PCR measurement of BACE2 mRNA levels in cells transfected with the BACE2 siRNAs vs. the control siRNA pool (ON-TARGETplus Non-targeting Pool, Dharmacon, D-001810-10-05). The transfected cells were scratched 24 hours after plating and fixed 48 hours later for migration quantification.

[2] = test system: EDNRB−/− hESC-derived ENC precursors; assay: Colon migration after transplantation of pre-treated EDNRB−/− ENC precursors into NSG mice; type: in vivo, human cells in NSG mice; details: EDNRB-null precursors pre-treated for 72 hours before transplantation, 2 weeks
Procedure: All mouse procedures were performed following NIH guidelines, and were approved by the local Institutional Animal Care and Use Committee (IACUC), the Institutional Biosafety Committee (IBC) as well as the Embryonic Stem Cell Research Committee (ESCRO). 3-6 week old male NSG (NOD.Cg-Prkdc^scid Il2rg^tm1Wjl/SzJ) mice or 2-3 weeks old EDNRB^s-l/s-l (SSL/LeJ) mice^39 (n=12, 6 male, 6 female) were used for these studies. […] Animals were randomly selected for the various treatment paradigms (NSG and EDNRB^s-l/s-l) but assuring for equal distribution of male/female ratio in each group (EDNRB^s-l/s-l). Animals were anesthetized with isoflurane (1%) throughout the procedure, a small abdominal incision was made, abdominal wall musculature lifted and the cecum is exposed and exteriorized. Warm saline was used to keep the cecum moist. 20 μl of cell suspension (2-4 million RFP+CD49D purified hESC-derived ENC precursors) in 70% matrigel (BD Biosciences, 354234) in PBS or 20 μl of 70% matrigel in PBS only (control grafted animals) were slowly injected into the cecum (targeting the muscle layer) using a 27-gauge needle. […]
The harvested colon samples were fixed in 4% PFA at 4° C. overnight before imaging. Imaging was performed using Maestro fluorescence imaging system (Biotechniques). […]

In the case of `Cc1c[nH]c(-c2cnc(NCCNc3ccc(C#N)cn3)nc2-c2ccc(Cl)cc2Cl)n1` [CHIR99021, 6-(2-(4-(2,4-dichlorophenyl)-5-(4-methyl-1H-imidazol-2-yl)pyrimidin-2-ylamino)ethylamino)nicotinonitrile], the “IC50 values against rodent GSK3β homologs” value (rodent GSK3β homologs) is listed as “nanomolar”.
With BACE inhibitor IV the “rescue of the migration defect in scratch assay” value ([1]; EDNRB−/− hESC-derived ENC, 1 μM) was “rescued the migration defect”.
With `CC(C)CC(=O)N[C@H](C(=O)N[C@H](C(=O)N[C@@H](CC(C)C)[C@@H](O)CC(=O)N[C@@H](C)C(=O)N[C@@H](CC(C)C)[C@@H](O)CC(=O)O)C(C)C)C(C)C` [Pepstatin A] (Isovaleryl-VV[Sta]A[Sta]-OH) the “rescue of the migration defect in scratch assay” value ([1]; EDNRB−/− hESC derived NC precursors, range of concentrations, treatment started 24 hrs before scratching) was “dose-dependent, near complete rescue of the migration defect”, the “optimal dose (based on optimal response and viability)” value ([1]; dose response analysis, EDNRB−/− ENC) was 10 µM and the “rescue of in vivo migration behavior in adult colon” value [2] was “significant rescue of the in vivo migration behavior”.
